From patent publication US4593019A, “N^6 -tricyclic adenosines” (Warner-Lambert Company, priority 1984, dated 1986)

What was measured:
A1 receptor = molecular target: T1, A1 receptor (Rattus norvegicus, UniProt P25099); experiment: Adenosine Receptor Binding - A1 Receptor Affinity (RBA1), [3H]-CHA displacement; conditions: 1.0 nM [3H]-CHA, rat brain membranes, pH 7.7, 25° C., 1 h; read-out: RBA-1 IC50 (adenosine A1 receptor affinity)
T1 construct: Whole brain minus cerebellum and brainstem from male Long Evans rats; from tissue; host or cells: rat whole brain minus cerebellum and brainstem (membranes)
T1 sequence (P25099 1-326): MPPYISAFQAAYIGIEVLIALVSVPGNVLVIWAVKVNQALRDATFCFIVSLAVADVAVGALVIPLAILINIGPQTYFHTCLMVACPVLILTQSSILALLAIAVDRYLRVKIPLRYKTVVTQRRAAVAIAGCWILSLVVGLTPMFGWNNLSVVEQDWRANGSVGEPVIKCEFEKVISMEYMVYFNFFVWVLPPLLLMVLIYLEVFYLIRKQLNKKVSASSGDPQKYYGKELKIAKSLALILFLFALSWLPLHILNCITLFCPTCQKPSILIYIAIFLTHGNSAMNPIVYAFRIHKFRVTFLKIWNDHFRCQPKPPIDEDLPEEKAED
Method: The supernatant was discarded, and the pellet was resuspended and centrifuged as before. […] Incubation volume was 2 ml. […] The radio-labeled ligand retained on the filter was measured by liquid scintillation spectrophotometry after shaking the filters for one hour or longer on a mechanical shaker in 10 ml of Beckman Ready-Solv HP scintillation cocktail. […] The maximal number of binding sites (Bmax) was calculated from the Scatchard plot.

A2 receptor = molecular target: T2, A2 receptor (Rattus norvegicus, UniProt P30543); experiment: Adenosine Receptor Binding - A2 Receptor Affinity (RBA2), [3H]NECA displacement; conditions: 4 nM [3H]NECA, 50 nM N6-cyclopentyladenosine, rat striatal membranes, 25° C., 60 min; read-out: RBA-2 IC50 (adenosine A2 receptor affinity)
T2 construct: 5 mg original tissue weight of rat weight of rat striatal membranes; tissue Pel-Freez (Rogers, Ark.); host or cells: rat striatum (membranes)
T2 sequence (P30543 whole entry): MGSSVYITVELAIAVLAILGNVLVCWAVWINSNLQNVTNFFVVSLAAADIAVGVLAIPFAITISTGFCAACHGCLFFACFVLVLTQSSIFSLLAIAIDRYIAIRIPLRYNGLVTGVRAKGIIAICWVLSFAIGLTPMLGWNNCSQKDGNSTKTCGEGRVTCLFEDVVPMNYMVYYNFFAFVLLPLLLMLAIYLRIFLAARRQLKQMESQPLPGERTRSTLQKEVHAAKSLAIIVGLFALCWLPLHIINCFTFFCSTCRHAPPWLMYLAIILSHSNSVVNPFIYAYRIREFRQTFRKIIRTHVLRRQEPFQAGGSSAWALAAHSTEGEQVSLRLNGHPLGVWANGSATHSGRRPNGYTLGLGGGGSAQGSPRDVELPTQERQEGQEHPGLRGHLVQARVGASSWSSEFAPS
Method: Adenosine Receptor Binding--A2 Receptor Affinity (RBA2)
Brains from 200-500 g mixed sex Sprague-Dawley rats were purchased from Pel-Freez (Rogers, Ark.). […] Brains were thawed and then kept on ice while the striata were dissected out. […] The suspension was centrifuged at 50,000 xg for ten minutes, the supernatant discarded, the pellet resuspended in 10 vol ice-cold Tris as above, recentrifuged, resuspended at 1 g/5 ml, and stored in plastic vials at -70° C. […] When needed, tissue was thawed at room temperature, disrupted in a Polytron, and kept on ice until used. […]
Nonspecific binding was defined as binding in the presence of 100 μM N^6 -cyclopentyladenosine, and specific binding was defined as total binding minus nonspecific binding. The IC50 was calculated by weighted nonlinear least squares curve-fitting to the mass-action equation. […]
Weighting factors were calculated under the assumption that the standard deviation was proportional to the predicted value of Y. Nonspecific binding was treated as a very large (infinite) concentration of drug in the computer analysis.

[1] = Mouse Activity and Screen Test Procedure (MAST): inhibition of spontaneous locomotion; format: in vivo, mouse (male Swiss-Webster); conditions: one hour prior to testing, accumulated over one hour
Method: (§1) Nine unfasted Swiss-Webster male mice weighing 20-30 g are equally divided into three groups for each drug dose to be tested. That is, data for each dose level was generated by three separate groups of three mice each.
(§2) A minimum of three dose levels (10, 30, and 100 mg/kg) are tested for each drug. Treatments are administered intraperitoneally one hour prior to testing. All dosages are calculated as parent compound and given in volumes of 10 ml/kg. Compounds are dissolved or suspended in 0.2% Methocel. Control animals are injected with Methocel.
A two part testing procedure is started one hour postinjection. […] Briefly this test consists of placing mice on individual wire screens which are then rotated 180 degrees at the start of a 60 second observation period. The number of mice falling off the inverted screen is recorded.
The actophotometer consists of a cylindrical chamber whose center is occupied by another cylinder which contains the illumination for six photocells located on the perimeter of the chamber. Six light-beam interruptions equal one count. Locomotor activity is recorded by computer at ten minute intervals for 60 minutes.
The data obtained from the screen test are expressed as percent of mice falling off the screen. Data derived from locomotor activity of drug treated mice are compared to the activity of vehicle treated animals and are expressed as percent inhibition of spontaneous locomotion. All percentages reported for inhibition of locomotion (LI) are based upon data accumulated for one hour. […] An overall dose rating is obtained by the following criteria:
LAD refers to the lowest dose at which an A rating is achieved. […] The compounds are identified in the examples.

mice = experiment: Mouse Activity and Screen Test Procedure (MAST): screen test failure; format: in vivo, mouse (male Swiss-Webster); conditions: one hour postinjection
From the text: The compounds of the invention are new chemical substances which are useful as pharmaceutical agents for the treatment of psychoses. The antipsychotic activity of representative compounds of the invention was established by the Mouse Activity and Screen Test Procedure (MAST) described below.
as §1, §2
A two part testing procedure is started one hour postinjection. First, the screen test (ST) is performed (see Pharmac. Biochem. Behav. 6, 351-353, 1977). Briefly this test consists of placing mice on individual wire screens which are then rotated 180 degrees at the start of a 60 second observation period. The number of mice falling off the inverted screen is recorded.
The data obtained from the screen test are expressed as percent of mice falling off the screen. Data derived from locomotor activity of drug treated mice are compared to the activity of vehicle treated animals and are expressed as percent inhibition of spontaneous locomotion. All percentages reported for inhibition of locomotion (LI) are based upon data accumulated for one hour. Both phases of testing are graded: A=60-100%; C=31-59%; and N=0-30%. An overall dose rating is obtained by the following criteria: […]

[2] = Antihypertensive evaluation (AHP3): direct monitoring of aortic blood pressure and heart rate in conscious rats; format: in vivo; conditions: 10 mg/kg, conscious rat
Method: This test procedure is described in the following paragraphs.
The continuous monitoring of pulsatile blood pressure (BP) from unrestrained conscious rats surgically equipped with polyethylene cannulas was accomplished by means of a computer assisted data capture scheme (CADCS). The basic elements of the methodology are the cannulation procedure and the CADCS.
Cannulation Procedure: Rats were anesthetized with Telazol (1:1 tiletamine HCl and zolazepam HCl); 20-40 mg/kg IM and the descending aorta exposed via a midline incision. Cannulas fabricated from polyethylene tubing were inserted into the aorta via an undersized puncture hole below the renal arteries. The puncture hole was made by a 23 G disposable needle with a section of the aorta clamped off above and below the puncture site. The cannulas, consisting of a PE100 (0.86 mm ID) body and a PE50 (0.58 mm ID) tip, were attached to a trocar, inserted through the psoas muscle, and passed subcutaneously along the midline of the back and externalized between the ears. The cannulas were anchored to the psoas muscle and between the scalulae (3-0 green braided suture). The midline incision was closed in two steps (muscle first, skin second) using continuous over-and over sutures (4-0 chronic). Each rat was then given penicillin 30,000 units subcutaneously (Penicillin G Procaine Sterile Suspension).
The rats were fitted with a harness-spring-swivel assembly designed to protect the cannula and to provide the rat relative freedom of movement. The harnesses were fabricated from nylon hook and loop tape cemented to a metal plate to which spring wires (18-8 stainless steel), were attached to brass swivels. […] While on test, each rat received a continuous slow infusion of heparinized saline solution (approximately […] or 40 units of heparin per 24 hour period) to prevent clot formation. Additional "flushes" of the cannula with heparinized saline were carried out when the aortic pulse pressure (systolic minus diastolic) was less than 25 mm Hg.
CADCS: The pulsatile blood pressure and heart rate of each of 32 rats was monitored every minute by means of two in-laboratory microcomputers communicating directly with a data concentrator computer. The data were first stored on the data concentrator disk and then transferred to a magnetic tape for analysis and report generation by the main research computer. The overall scheme involved modulating the primary signal from the pressure transducer, generating the primary data set of the one-minute values for systolic, diastolic, and mean blood pressures and heart rate by the in-lab microcomputer and the storage, analysis, and report generation by the main reserach computer.
The transducers were connected to analog signal conditioning modules. The modules provided a regulated excitation voltage for the transducers, amplification as required to interface the microprocessors and an active low pass filter to compensate for the pressure wave form distortion produced by the flexible, fluid filled, narrow cannula.
The microcomputers (one for each of two groups of 16 rats) were connected to the input components through the module interface units, an analog-to-digital converter for the pressure wave form signal and the digital inputs for the dose and event marker switches. The microcomputer controlled the sequential acquisition of data from the modular interface units through an internal synchronous time-of-day clock/time base generator. Utilizing the time base generator as a reference, the blood pressure values and the marker switch status for each of the 32 stations were sampled every ten msec. The microcomputer processed each blood pressure sample as it was received to produce "running average" values for heart rate, and mean, systolic and diastolic blood pressures.

Row | IC50 (A1 receptor) | IC50 (A2 receptor) | Screen Test Failure (percent of mice falling off the screen) (mice; 10 mg/kg i.p.) | Screen Test Failure (percent of mice falling off the screen) (mice; 30 mg/kg i.p.) | Screen Test Failure (percent of mice falling off the screen) (mice; 100 mg/kg i.p.) | Compound | Inhibition of Mouse Locomotion Activity ([1]; 1 mg/kg i.p.) | Inhibition of Mouse Locomotion Activity ([1]; 3 mg/kg i.p.) | Inhibition of Mouse Locomotion Activity ([1]; 10 mg/kg i.p.) | Inhibition of Mouse Locomotion Activity ([1]; 30 mg/kg i.p.) | Inhibition of Mouse Locomotion Activity ([1]; 100 mg/kg i.p.) | Screen Test Failure (percent of mice falling off the screen) (mice; 1 mg/kg i.p.) | Screen Test Failure (percent of mice falling off the screen) (mice; 3 mg/kg i.p.) | HR ↑ (increase in heart rate) ([2]; 1 hour) | MAP ↓ (decrease in mean arterial blood pressure) ([2]; 1 hour) | HR ↑ (increase in heart rate) ([2]; 3 hours) | MAP ↓ (decrease in mean arterial blood pressure) ([2]; 3 hours) | HR ↑ (increase in heart rate) ([2]; 5 hours) | MAP ↓ (decrease in mean arterial blood pressure) ([2]; 5 hours) | HR ↑ (increase in heart rate) ([2]; 7 hours) | MAP ↓ (decrease in mean arterial blood pressure) ([2]; 7 hours) | further results
1 | 85 nM | 65 nM | 0% | 11% | 44% | OC[C@H]1O[C@@H](n2cnc3c(NCC4c5ccccc5Oc5ccccc54)ncnc32)[C@H](O)[C@@H]1O [Example 4, N^6-[Xanthene-9-methylamino]adenosine] | -5% | 17% | 72% | 91% | 91% | 0% | 0% | 16% | 11% | 19% | 4% | 25% | 8% | 15% | 12% | HR ↑ (increase in heart rate) ([2]; 9 hours): 18%; MAP ↓ (decrease in mean arterial blood pressure) ([2]; 9 hours): 8%
2 | 8600 nM | 51000 nM | 0% | 0% | 0% | OC[C@H]1O[C@@H](n2cnc3c(NC4c5ccccc5-c5ccccc54)ncnc32)[C@H](O)[C@@H]1O [Example 1] | – | – | 41% | 60% | 68% | – | – | – | – | – | – | – | – | – | – | –
3 | 435 nM | – | – | – | – | OC[C@H]1O[C@@H](n2cnc3c(NCCC4c5ccccc5-c5ccccc54)ncnc32)[C@H](O)[C@@H]1O [Example 3, N^6 -Fluorenylethyl adenosine] | – | – | – | – | – | – | – | – | – | – | – | – | – | – | – | –

Row | Compound | IC50 (A1 receptor) | IC50 (A2 receptor) | Screen Test Failure (percent of mice falling off the screen) (mice; 10 mg/kg i.p.) | Screen Test Failure (percent of mice falling off the screen) (mice; 30 mg/kg i.p.) | Screen Test Failure (percent of mice falling off the screen) (mice; 100 mg/kg i.p.) | Inhibition of Mouse Locomotion Activity ([1]; 1 mg/kg i.p.) | Inhibition of Mouse Locomotion Activity ([1]; 3 mg/kg i.p.) | Inhibition of Mouse Locomotion Activity ([1]; 10 mg/kg i.p.) | Inhibition of Mouse Locomotion Activity ([1]; 30 mg/kg i.p.) | Inhibition of Mouse Locomotion Activity ([1]; 100 mg/kg i.p.) | Screen Test Failure (percent of mice falling off the screen) (mice; 1 mg/kg i.p.) | Screen Test Failure (percent of mice falling off the screen) (mice; 3 mg/kg i.p.) | HR ↑ (increase in heart rate) ([2]; 1 hour) | MAP ↓ (decrease in mean arterial blood pressure) ([2]; 1 hour) | HR ↑ (increase in heart rate) ([2]; 3 hours) | MAP ↓ (decrease in mean arterial blood pressure) ([2]; 3 hours) | HR ↑ (increase in heart rate) ([2]; 5 hours) | MAP ↓ (decrease in mean arterial blood pressure) ([2]; 5 hours) | HR ↑ (increase in heart rate) ([2]; 7 hours) | MAP ↓ (decrease in mean arterial blood pressure) ([2]; 7 hours) | further results
4 | OC[C@H]1O[C@@H](n2cnc3c(NCC4c5ccccc5-c5ccccc54)ncnc32)[C@H](O)[C@@H]1O [Example 2] | – | – | 44% | 55% | 55% | 56% | 94% | 97% | 97% | 91% | 11% | 33% | 24% | 32% | 27% | 32% | 20% | 34% | 13% | 28% | HR ↑ (increase in heart rate) ([2]; 9 hours): 13%; MAP ↓ (decrease in mean arterial blood pressure) ([2]; 9 hours): 30%
